SMILES strings stand for the structures.

Data set [1] has as its system HIV-1RF. Briefly: Cytoprotection in CEM-SS cells infected with HIV-1RF (XTT). In kind it is cell-based. As to conditions: CEM-SS cells infected with RF strain of HIV-1, six days. The procedure:
(§1) To evaluate whether the protease inhibitors described herein retain the ability to protect against HIV-1 infection, CEM-SS cells infected with the RF strain of HIV-1 were treated with test compounds for six days, and then cell viability was monitored using the tetrazolium dye XTT. Infection studies were performed and EC50 values were calculated as the protease inhibitor concentration leading to 50% reduction in cell death compared to virus-infected cells without protease inhibitor. TC50 values were calculated as the protease inhibitor concentration leading to 50% cell death in the absence of viral infection. A value for Therapeutic Index (TI) was calculated as TC50/EC50.
Background: Formazan colour is commonly taken as a measure of viable cells.

Data set [2] has as its system CEM-SS cells. In kind it is cell-based. The procedure:
as §1

Data set [3] has as its system HT/92/599 clinical subtype B HIV-1. The experiment in a line: HIV-1 reverse transcriptase activity following infection in fresh human PBMCs. The format is cell-based. The following applies: seven days; for EC50: read-out: PBMC/HIV-1HT/92/599 EC50; for EC90: read-out: PBMC/HIV-1HT/92/599 EC90. The procedure: Fresh human peripheral blood mononuclear cells (PBMCs) obtained from a commercial source were purified following centrifugation using a Ficoll-Hypaque density gradient. Viable cells were induced to proliferate in the presence of PHA-P and recombinant human IL-2 for 72 hours. PBMCs pooled from three donors were cultured with test compounds in the presence of the HT/92/599 clinical subtype B HIV-1 for seven days, followed by measurement of reverse transcriptase activity in cell supernatants using a radioactive incorporation polymerization assay. […] Incorporation of TTP into DNA was monitored by spotting the reaction mixture onto a DEAE filter mat, followed by washes with 5% phosphate buffer, distilled water, and 70% ethanol, and subsequent drying of the mat. Radioactivity was measured using a Wallac 1450 Microbeta Trilux liquid scintillation counter using Opti-Fluor O. Test compound-associated toxicity was measured in PBMCs cultured for seven days in the absence of virus using XTT reagent. EC50 and EC90 values were calculated as the protease inhibitor concentration leading to 50% and 90% reduction in […], respectively, compared to virus-infected cells without protease inhibitor. TC50 values were calculated as the protease inhibitor concentration leading to 50% cell death in the absence of viral infection. A value for Therapeutic Index (TI) was calculated as TC50/EC50.

The subject of data set [4] is human peripheral blood mononuclear cells (PBMCs). The format is cell-based. Here is the method: Fresh human peripheral blood mononuclear cells (PBMCs) obtained from a commercial source were purified following centrifugation using a Ficoll-Hypaque density gradient. Viable cells were induced to proliferate in the presence of PHA-P and recombinant human IL-2 for 72 hours. PBMCs pooled from three donors were cultured with test compounds in the presence of the HT/92/599 clinical subtype B HIV-1 for seven days, followed by measurement of reverse transcriptase activity in cell supernatants using a radioactive incorporation polymerization assay. Cell supernatant containing HIV-1 viral was incubated for 90 minutes at 37° C. with a reaction mixture containing EGTA, Triton X-100, Tris (pH 7.4), DTT, MgCl2, poly rA, oligo dT, and tritiated thymidine triphosphate (TTP). Incorporation of TTP into DNA was monitored by spotting the reaction mixture onto a DEAE filter mat, followed by washes with 5% phosphate buffer, distilled water, and 70% ethanol, and subsequent drying of the mat. Radioactivity was measured using a Wallac 1450 Microbeta Trilux liquid scintillation counter using Opti-Fluor O. Test compound-associated toxicity was measured in PBMCs cultured for seven days in the absence of virus using XTT reagent. EC50 and EC90 values were calculated as the protease inhibitor concentration leading to 50% and 90% reduction in […], respectively, compared to virus-infected cells without protease inhibitor. TC50 values were calculated as the protease inhibitor concentration leading to 50% cell death in the absence of viral infection. A value for Therapeutic Index (TI) was calculated as TC50/EC50.

A short description of data set [5]: Pharmacokinetics of released PEGylated protease inhibitor following P.O. administration of prodrugs in rats. In kind it is in vivo, male Sprague-Dawley rats. Set-up: AUCall Mean: concentration or dose not given beside the values. As to conditions: rats (n = 4-5). A digest of the protocol:
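Prodrugs given orally to male Sprague-Dawley rats, with serial blood via jugular catheter into K2EDTA. Plasma levels of test article or released PEGylated inhibitor measured by LC-MS/MS. PK parameters from noncompartmental analysis.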

A short description of data set [6]: Pharmacokinetics of PEGylated protease inhibitor prodrugs in rats. The format is in vivo, male Sprague-Dawley rats. The following applies: prodrug in plasma; for AUCall / Cmax: mean ± SD. Set-up: AUCall / AUC: concentration or dose not given beside the values. A digest of the protocol:
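Male Sprague-Dawley rats dosed; serial blood drawn via jugular vein catheters into K2EDTA and processed to plasma. Test article or released PEGylated molecule quantified by LC-MS/MS; Cmax, AUCall, T½ and MRTlast estimated noncompartmentally.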

Setting [7] is: mPEG6-atazanavir in plasma after PO administration of mPEG6-ATV or of the listed prodrug.
Setting [8] is: mPEG3-atazanavir in plasma after PO administration of mPEG3-ATV or of the listed prodrug.

In general, CC50 refers to the concentration giving 50% cytotoxicity. For the compound `CCCCCCCCCCCCCCCCOCC(COP(=O)(O)OC(CN(Cc1ccc(-c2ccccn2)cc1)NC(=O)C(NC(=O)OC)C(C)(C)C)C(Cc1ccccc1)NC(=O)C(NC(=O)OCCOCCOCCOC)C(C)(C)C)OC` (stereo not drawn) [mPEG3-Atazanavir-monophospholipid], the EC50 turned out to be 0.35 µM in data set [1] and 0.97 µM in data set [3]. The CC50 in data set [2] worked out at 14.2 µM; in data set [4], 43.7 µM. Further, the EC90 in data set [3] was 2.52 µM.

Turning to `CCCCCCCCCCCCCCCCOCC(COP(=O)(O)OC(CN(Cc1ccc(-c2ccccn2)cc1)NC(=O)C(NC(=O)OC)C(C)(C)C)C(Cc1ccccc1)NC(=O)C(NC(=O)OCCOCCOCCOCCOCCOC)C(C)(C)C)OC` (stereo not drawn) [mPEG5-Atazanavir-monophospholipid], in data set [1], the “CEM-SS/HIV-1RF EC50” value is “no EC50 value could be determined” and the EC50 was greater than 200 µM. In data set [2], this compound displayed a CC50 of 12 µM. Further, in data set [3], the EC50 is 12.3 µM and the EC90 was determined as 26.8 µM. Also, in data set [4], it took 17.1 µM to reach half-maximal cytotoxicity (CC50).

In turn, `CCCCCCCCCCCCCCCCOCC(COP(=O)(O)OC(CN(Cc1ccc(-c2ccccn2)cc1)NC(=O)C(NC(=O)OC)C(C)(C)C)C(Cc1ccccc1)NC(=O)C(NC(=O)OCCOCCOCCOCCOCCOCCOC)C(C)(C)C)OC` (stereo not drawn) [mPEG6-Atazanavir-monophospholipid, mPEG6-atazanavir monophospholipid] had an EC50 in data set [1] of 14.2 µM. Moreover, it took 12.6 µM to reach half-maximal cytotoxicity in data set [2] (CC50). In data set [3], the EC50 is 12.4 µM and the EC90 turned out to be 26.3 µM. This compound also gave a CC50 in data set [4] of 37.6 µM. Further, in data set [5] (setting [7]), the “AUCall Mean” value was found to be 0.108 ng·h/mL, the “Cmax Mean” value was determined as 0.432 ng/mL, the “MRT last Mean” value came to 0.250 h and the “Tmax Median” value was 0.250 h.

A word on the Cmax: it is the peak of the concentration-time curve. As to `CCOC(CC)OC(CN(Cc1ccc(-c2ccccn2)cc1)NC(=O)C(NC(=O)OC)C(C)(C)C)C(Cc1ccccc1)NC(=O)C(NC(=O)OCCOCCOCCOC)C(C)(C)C` (mixture of isomers) [1-ethoxypropoxy-mPEG3-Atazanivir, atazanavir-1-ethoxypropoxy-mPEG3], in data set [6], the MRTlast was 2.29 ± 0.280 h, the “t½(z)” value is 1.39 ± 0.210 h, the “Cmin(24 hr)” value is “BLQ” and the AUCall was determined as 8480 ± 1700 ng·h/mL. Besides, the Cmax in data set [6] was found to be 2060 ± 260 ng/mL. In data set [5] (setting [8]), the “AUCall Mean” value amounted to 849 ng·h/mL, the “Cmax Mean” value amounted to 153 ng/mL, the “MRT last Mean” value is 3.83 h and the “Tmax* Median” value was found to be 1.00 h.

Turning to `CCOC(C)OC(CN(Cc1ccc(-c2ccccn2)cc1)NC(=O)C(NC(=O)OC)C(C)(C)C)C(Cc1ccccc1)NC(=O)C(NC(=O)OCCOCCOCCOCCOCCOCCOC)C(C)(C)C` (mixture of isomers) [1-ethoxyethoxy-mPEG6-Atazanivir, ethoxy ethoxy mPEG6-atazanavir], in data set [6], the MRTlast came out at 2.17 ± 0.340 h, the “t½(z)” value came out at 2.45 ± 0.630 h, the “Cmin(24 hr)” value is reported as 0.354 ± 0.410 ng/mL and the AUCall came to 2200 ± 2000 ng·h/mL. Also, the Cmax in data set [6] was 630 ± 550 ng/mL. Also, in data set [5] (setting [7]), the “AUCall Mean” value stood at 137 ng·h/mL, the “Cmax Mean” value came out at 28.8 ng/mL, the “MRT last Mean” value came out at 4.33 h and the “Tmax Median” value amounted to 1.50 h.

Take `COCCOCCOCCOC(=O)NC(C(=O)NC(Cc1ccccc1)C(CN(Cc1ccc(-c2ccccn2)cc1)NC(=O)C(NC(=O)OC)C(C)(C)C)OC(=O)CNC(=O)C(N)CC(C)C)C(C)(C)C.Cl` (stereo not drawn) [Leu-Gly-mPEG3-Atazanavir, Leu-Gly-mPEG3-Atazanavir Hydrochloride]: in data set [6], the MRTlast stood at 0.597 ± 0.376 h, the AUCall was 0.955 ± 1.02 ng·h/mL and the Cmax stood at 0.833 ± 0.676 ng/mL. For the same compound, in data set [5] (setting [8]), the “AUCall Mean” value was 44.9 ng·h/mL, the “Cmax Mean” value was determined as 2.10 ng/mL, the “MRT last Mean” value turned out to be 15.9 h and the “Tmax* Median” value came out at 4.00 h.

(Values after patent US20120108501A1, “Protease Inhibitors” (priority 2009, published 2012).)
